In patent US8802240B2, “Uses of formulations of thyroid hormone analogs and nanoparticulate forms thereof to increase chemosensitivity and radiosensitivity in tumor or cancer cells” (Nanopharmaceuticals LLC, priority 2011, dated 2014):
Entries after “also recorded” stand apart in the source; their conditions may differ.

What was measured:
[1] = Solubility; type: physicochemical; conditions: required a high volume of cosolvent (DMSO)
[2] = tested on: GL261 cells; test: GL261 apoptosis and necrosis with or without 5 Gy x-rays; type: cell-based, murine; conditions: Tetrac 2 μM, T-NP 0.2 μM
Method: Apoptotic cells were identified using TUNEL staining (Terminal deoxynucleotidyl transferase dUTP nick end labeling (TUNEL)) (staining kit obtained from Oncor, Gaithersberg, Md.; ApoTag) (See Gavrieli et al., J. Cell. Biol. 1992. 119:493-501). The staining procedures were carried out as instructed by the manufacturer. Gill's hematoxylin was used as a counterstain to discriminate negative cells (purple) from positive cells (brown). Negative controls were performed by omitting the terminal deoxynucleotidyl transferase enzyme. Positive controls were performed by incubating cells with Dnase I (3000 U/ml) in 50 mM Tris-HCl, pH 7.5, in 1 mg/ml bovine serum albumin (BSA) for 10 min at ambient temperature.
To perform FCM, a total of 10^6 adherent cells were trypsinized and washed once in ambient temperature PBS. They were then fixed in 70% ethanol, and stored overnight, at 4° C. […] Cells were left overnight at 4° C. in the dark and were then analyzed on a Coulter fluorescence-activated cell sorter (Coulter Electronics, Hialeah, Fla.). Cells were excited with a single 488 nm argon laser and the resulting fluorescence was detected using a 585 nm filter. Linear red-orange fluorescence (FL3) data were collected in list format and 10,000 events were collected. The distribution of cells within the cell cycle (sub-G1, G1, S, and G2+M phases) was determined using a Coulter software program.

[3] = tested on: matrigel plug angiogenesis; test: Mouse matrigel model of angiogenesis (plug hemoglobin); type: in vivo, mice (C57BL/6NCr)
Method: Normal male mice (C57BL/6NCr) 6-8 weeks of age and weighing ˜20 g were purchased from Taconic farm. Animals were housed 4 per cage, in controlled conditions of temperature (20-24° C.); humidity (60-70%) and 12 hrs. light/dark cycle provided with food and water ad libitum. […] Aliquots of matrigel were placed into cold polypropylene tubes to prevent the matrigel from solidifying and the angiogenesis promoter added to matrigel with or without agonist. Mice were treated daily. Matrigel was subcutaneously injected as triple injection per animal at 100 μL/animal. At day 14 post plug implant all animals were killed in CO2 chamber and matrigel plugs were collected. Plug hemoglobin content was analyzed from three implants/mice (n=6 per group) to measure angiogenesis.
The matrigel plugs dissected from the mice were carefully stripped of any remaining peritoneum. The plugs were placed into 0.5 mL tube of ddH2O and homogenized for 5-10 min. […] Absorbance was read with a Microplate Manager ELISA reader at 540 nm. […] Hemoglobin concentration is a reflection of the number of blood vessels in the plugs.

[4] = tested on: chick chorioallantoic membrane (CAM) blood vessel branch points; test: Chick chorioallantoic membrane (CAM) model of angiogenesis; type: in vivo
Method: In vivo neovascularization was examined by methods described previously. 9-12 Ten-day-old chick embryos were purchased from SPAFAS (Preston, Conn.) and incubated at 37° C. with 55% relative humidity. A hypodermic needle was used to make a small hole in the shell concealing the air sac, and a second hole was made on the broad side of the egg, directly over an avascular portion of the embryonic membrane that was identified by candling. A false air sac was created beneath the second hole by the application of negative pressure at the first hole, causing the CAM to separate from the shell. […] Thyroid hormone, hormone analogs, FGF2 or control solvents, and inhibitors were then applied to the disks and the disks allowed to dry. The disks were then suspended in PBS and placed on growing CAMs. […] At 24 hours, the MAPK cascade inhibitor PD 98059 was also added to CAMs topically by means of the filter disks. […] The number of vessel branch points contained in a circular region equal to the area of each filter disk were counted. […] In addition, each experiment was performed 3 times. The resulting angiogenesis index is the mean±SEM of new branch points.

[5] = tested on: MDA-MB-231 cells; test: RNA microarray of MDA-MB-231 cells; type: cell-based, human
Method: MDA-MB-231 cells were maintained in DMEM that was supplemented with 10% FBS in a 5% CO2/95% 02 air incubator at 37° C. For two days prior to exposure to Tetrac and nanoparticulate Tetrac, cells were maintained in 0.25% FBS that was stripped of estrogen and thyroid hormone. (See Lin et al., Biochemistry 42: 7571-7579 (2003)).
Microarray analysis experiments were conducted as described previously. (See Glinsky et al., J Clin Invest 115: 1503-1521 (2005); Glinsky et al., J Clin Invest 113: 913-923 (2004); Glinsky et al., Clin Cancer Res 10: 2272-2283 (2004); and Glinsky et al., Mol Carcinog 37: 209-221 (2003)). […] Sample purity and integrity were verified with an Agilent BioAnalyzer (Santa Clara, Calif.). Expression analysis of 54,675 transcripts for each sample was by Affymetrix HG-U133A Plus 2.0 arrays. MAS5.0 software was used for data retrieval and analysis and concordant changes of gene expression in response to unmodified Tetrac and nanoparticulate Tetrac were defined by two-tailed t test at a threshold p value<0.01.
Expression of ˜54,000 transcripts was analyzed in control and drug-treated cultures, using Affymetrix Human Genome U133 plus 2.0 microarrays. Subsequent analysis was focused on genes affected by treatment at p<0.01. There was 93% concordance between Tetrac and Tetrac NP in terms of genes affected; notable disparities included downregulation of epidermal growth factor receptor (EGFR) by Tetrac NP and no affect of unmodified Tetrac on this gene.

[6] = tested on: medullary thyroid carcinoma cells implanted in CAM; test: CAM cancer implant model; type: in vivo, chick; conditions: 1 μg/CAM; n = 8; P<0.01
Method: The effect of Tetrac versus nanoparticulate Tetrac at 1.0 μg/CAM on tumor angiogenesis and tumor growth of 1×10^6 medullary thyroid carcinoma cells implanted in Matrigel in 7 day-old CAM's was determined 8 days after implantation. […] Data represent mean tumor weight (mg) and tumor hemoglobin (mg/dL)±SEM per treatment group, n=8 per group.

O=C(O)Cc1cc(I)c(Oc2cc(I)c(O)c(I)c2)c(I)c1 [Tetrac, tetraiodothyroacetic acid]
solubility in water (in words) [1]: difficult to solubilize in water | effect on necrosis, necrotic percentage at 120 hours (in words) [2]: essentially additive | effect plus 5 Gy of x-rays on apoptosis (in words) [2]: supra-additive | inhibition in vivo at 10 µg/plug ([3]; Mus musculus, FGF 100 ng + test substance 10 μg/plug, numbers are Tetrac analogs of Example 13): 90 ± 13% | inhibition of FGF induced angiogenesis ([3]; Tetrac 10 μg): 85% | effect on angiogenesis stimulated by T4-agarose (in words) ([4]; T4-agarose 0.1 μmol/L + Tetrac): inhibited | effect on angiogenesis stimulated by T4 (in words) ([4]; Tetrac 0.1 μmol/L, T4 0.1 μmol/L): inhibited the action of T4 | effect of Tetrac alone on angiogenesis (in words) ([4]; Tetrac alone): had no effect on angiogenesis; also recorded: does not stimulate angiogenesis | Change: BCL2L14 [5]: not a significant stimulatory action and ↑ | Change: CASP2, Caspase 2 [5]: not a significant stimulatory action and ↑ | Change: CBY1, Catenin inhibitor [5]: significantly increased and induced and ↑ | Change: CDKN2C, Cyclin-dependent kinase inhibitor [5]: ↑ | Change: CTNNA1, Catenin [5]: ↓ | Change: CTNNA2, Catenin [5]: ↓ | Change: CTSL1, Cathepsin 1 [5]: ↓ | Change: CXCL10, Anti-endothelial cell chemokine [5]: ↑ | Change: Cyclins, Cell cycle regulators [5]: ↓ | Change: EDN1, Endothelin-1 [5]: ↑ | Change: Interleukins, Inflammatory cytokines [5]: ↓ | Change: MCL1, Myeloid cell leukemia-1 [5]: did not significantly affect and ↓ | Change: NR1D1, Nuclear receptor Rev-erbα [5]: ↓ | Change: THBS1, Thrombospondin [5]: strongly induced and ↑ | Change: XIAP, X-linked inhibitor of apoptosis protein [5]: acted on XIAP and ↓ | expression of epidermal growth factor receptor (EGFR) (in words) [5]: ineffective; also recorded: no affect | tumor growth (in words) [6]: effective inhibition | tumor-mediated angiogenesis (in words) [6]: significant inhibition
